ChEMBL document CHEMBL1201862, “PubChem BioAssay data set” (2004)
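Dose response: 5 concentrations. Exposure: 48 h. Format: 96-well plates. Endpoint: linear interpolation; highest concentration if not reached. At the GI50, growth is halved.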 Activity calls are given as the source filed them. Rule as the data show it: active = GI50 up to about 1.1 µM and inactive = higher.

Legend:
Assay in all cases: NCI anticancer screen, dose series, 48 h
UO-31 = system: UO-31
SR = system: SR
SF-539 = system: SF-539
SN12C = system: SN12C
ACHN = system: ACHN
SK-MEL-28 = system: SK-MEL-28
COLO 205 = system: COLO 205
CAKI-1 = system: CAKI-1
LOX IMVI = system: LOX IMVI
SNB-19 = system: SNB-19
NCI-H460 = system: NCI-H460
KM12 = system: KM12
SK-MEL-5 = system: SK-MEL-5
786-0 = system: 786-0
UACC-62 = system: UACC-62
HOP-62 = system: HOP-62
NCI-H522 = system: NCI-H522
HOP-92 = system: HOP-92

Measured: GI50

OC1(c2ccccc2)C2CCN(CC2)C1CN1CCOCC1 (centres undefined)
inactive: UO-31 > 100 µM | SR > 100 µM | SF-539 > 100 µM | SN12C > 100 µM | ACHN > 100 µM | SK-MEL-28 > 100 µM | COLO 205 > 100 µM | CAKI-1 > 100 µM | LOX IMVI > 100 µM | SNB-19 > 100 µM | NCI-H460 > 100 µM | KM12 > 100 µM | SK-MEL-5 > 100 µM | 786-0 > 100 µM | UACC-62 > 100 µM | HOP-62 > 100 µM | NCI-H522 > 100 µM

CCCCCCCCCC/C=C/CC(=O)SCCNC(=O)CCNC(=O)[C@@H](O)C(C)(C)COP(=O)(O)OP(=O)(O)OCC1OC(n2cnc3c(N)ncnc32)C(O)C1OP(=O)(O)O (some centres undefined)
inactive: SF-539 > 10 µM | SN12C > 10 µM | ACHN > 10 µM | SK-MEL-28 > 10 µM | COLO 205 > 10 µM | CAKI-1 > 10 µM | LOX IMVI > 10 µM | SNB-19 > 10 µM | NCI-H460 > 10 µM | KM12 > 10 µM | SK-MEL-5 > 10 µM | 786-0 > 10 µM | UACC-62 > 10 µM | HOP-62 > 10 µM | HOP-92 > 10 µM

Oc1cc(-c2ccc[nH]2)nc2cc3c(cc12)OCO3
inactive: UO-31 56.5 µM | SR 37.2 µM | SF-539 29.6 µM | SN12C 49 µM | ACHN 88.1 µM | SK-MEL-28 65.2 µM | COLO 205 18.5 µM | LOX IMVI 64.1 µM | SNB-19 37.7 µM | NCI-H460 25.2 µM | 786-0 40.6 µM | UACC-62 27 µM | HOP-62 17.6 µM

CN(N=O)C(=O)Nc1c[nH]c(=O)[nH]c1=O
inactive: UO-31 > 100 µM | SF-539 > 100 µM | SN12C > 100 µM | ACHN > 100 µM | SK-MEL-28 > 100 µM | COLO 205 > 100 µM | CAKI-1 > 100 µM | LOX IMVI > 100 µM | SNB-19 > 100 µM | KM12 > 100 µM | SK-MEL-5 > 100 µM | 786-0 > 100 µM | UACC-62 > 100 µM | HOP-62 > 100 µM | HOP-92 > 100 µM | NCI-H522 > 100 µM

O=C(/C=C/c1cccs1)c1ccc(Cl)s1
inactive: UO-31 19.9 µM | SR 25.2 µM | SF-539 28.6 µM | SN12C 18.6 µM | ACHN > 100 µM | SK-MEL-28 29.2 µM | COLO 205 > 10 µM | CAKI-1 83.4 µM | SNB-19 15.7 µM | NCI-H460 72.8 µM | KM12 21.8 µM | SK-MEL-5 50.7 µM | 786-0 > 10 µM | UACC-62 45 µM | HOP-62 > 100 µM

Nc1ncc(CN2CCCC2)c(-c2ccccc2O)n1
inactive: UO-31 > 750 µM | SR > 750 µM | SF-539 > 750 µM | SN12C > 750 µM | ACHN > 750 µM | SK-MEL-28 > 750 µM | COLO 205 > 750 µM | CAKI-1 > 750 µM | LOX IMVI 38.4 µM | SNB-19 > 750 µM | NCI-H460 > 750 µM | KM12 > 750 µM | SK-MEL-5 > 750 µM | 786-0 > 750 µM | UACC-62 > 750 µM | HOP-62 > 750 µM | HOP-92 > 750 µM | NCI-H522 > 750 µM

CCCCOC(=O)NC(Nc1ccc(S(=O)(=O)Nc2ccc(OC)nn2)cc1)(C(F)(F)F)C(F)(F)F
inactive: UO-31 > 100 µM | SR > 100 µM | SF-539 > 100 µM | SN12C > 100 µM | ACHN > 100 µM | SK-MEL-28 > 100 µM | COLO 205 > 100 µM | CAKI-1 > 100 µM | LOX IMVI > 100 µM | SNB-19 > 100 µM | NCI-H460 > 100 µM | KM12 > 100 µM | SK-MEL-5 > 100 µM | 786-0 > 100 µM | UACC-62 > 100 µM | HOP-62 > 100 µM | HOP-92 78.2 µM

CCOC(=O)Nc1ccc(C)c(NC(=O)OCC)c1
inactive: UO-31 > 100 µM | SR > 100 µM | SF-539 > 100 µM | SN12C > 100 µM | ACHN > 100 µM | SK-MEL-28 > 100 µM | COLO 205 > 100 µM | CAKI-1 > 100 µM | LOX IMVI > 100 µM | SNB-19 > 100 µM | NCI-H460 > 100 µM | KM12 > 100 µM | SK-MEL-5 > 100 µM | 786-0 > 100 µM | UACC-62 > 100 µM | HOP-62 > 100 µM | HOP-92 > 100 µM | NCI-H522 > 100 µM
